{
  "source": "patent US20220267753A1",
  "about": "“RATIONAL THERAPEUTIC TARGETING OF ONCOGENIC IMMUNE SIGNALING STATES IN MYELOID MALIGNANCIES VIA THE UBIQUITIN CONJUGATING ENZYME UBE2N” (CHILDREN'S HOSPITAL MEDICAL CENTER, priority 2019, published 2022)",
  "origin": "cited, not measured here",
  "biological_target": "T1, UBE2N (Homo sapiens, UniProt P61088)",
  "T1 sequence (P61088 1-152)": "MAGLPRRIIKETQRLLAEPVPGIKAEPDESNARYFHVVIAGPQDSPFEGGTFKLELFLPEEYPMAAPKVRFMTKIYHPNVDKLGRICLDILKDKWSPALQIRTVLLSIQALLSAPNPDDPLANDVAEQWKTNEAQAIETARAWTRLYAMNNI",
  "conditions": "cited from earlier work; for inhibition of UBE2N by covalent reaction with Cys-87: reference [16]; for selectivity among cysteine-containing ubiquitin enzymes: references [23-25]",
  "data": [
    {"smiles": "Cc1ccc(S(=O)(=O)c2ccc([N+](=O)[O-])o2)cc1", "note": "[NSC697923, 2-(4-methylphenyl)sulfonyl-5-nitrofuran]", "values": [
      {"measurement": "inhibition of UBE2N by covalent reaction with Cys-87", "result": "irreversible inhibition of UBE2N"},
      {"measurement": "selectivity among cysteine-containing ubiquitin enzymes", "result": "non-selective inhibitors"}
    ]},
    {"smiles": "Cc1ccc(S(=O)(=O)/C=C/C#N)cc1", "note": "[BAY11-7082]", "values": [
      {"measurement": "inhibition of UBE2N by covalent reaction with Cys-87", "result": "irreversible inhibition of UBE2N"},
      {"measurement": "selectivity among cysteine-containing ubiquitin enzymes", "result": "non-selective inhibitors"}
    ]}
  ]
}
